Measurements as given in PubChem BioAssay AID248 (DTP/NCI, 2004).
Where “and” joins values, the source holds several entries; their conditions need not be identical. Identical values can stand only once. Inconclusive results and toxic doses are left out. No stated cut-off is given here; in the data, active means T/C of 150% or more; inactive means T/C below 125%.

Tested on: L1210 leukemia ip in BDF1 mice, survival T/C
Assay: NCI In Vivo Anticancer Drug Screen. Data for tumor model L1210 Leukemia (intraperitoneal) in B6D2F1 (BDF1) mice
Settings: endpoint: mean survival time, higher = longer survival
How it was run: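 In this screen, tumor-bearing mice given compound are compared to those given vehicle, and their survival values are reported as a treated-to-control quotient.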

[1] = dose: 100.0 mg/kg/injection, schedule: Q01DX009 (ip), vehicle: Klucel (hydroxypropylcellulose) (HPC)
[2] = dose: 200.0 mg/kg/injection, schedule: Q01DX009 (ip), vehicle: Klucel (hydroxypropylcellulose) (HPC)
[3] = dose: 100.0 mg/kg/injection, schedule: Q04DX003 (ip), vehicle: saline with Tween-80
[4] = dose: 200.0 mg/kg/injection, schedule: Q04DX003 (ip), vehicle: saline with Tween-80
[5] = dose: 400.0 mg/kg/injection, schedule: Q04DX003 (ip), vehicle: saline with Tween-80

Measured: T/C

C[N+](C)(C)c1ccc(F)c([N+](=O)[O-])c1
inactive: dose: 50.0 mg/kg/injection, schedule: Q01DX005 (ip), vehicle: Klucel (hydroxypropylcellulose) (HPC) 95 % of control | dose: 50.0 mg/kg/injection, schedule: Q01DX009 (ip), vehicle: Klucel (hydroxypropylcellulose) (HPC) 96 % of control | dose: 100.0 mg/kg/injection, schedule: Q01DX005 (ip), vehicle: Klucel (hydroxypropylcellulose) (HPC) 98 % of control | [1] 96 % of control | dose: 100.0 mg/kg/injection, schedule: Q04DX002 (ip), vehicle: Klucel (hydroxypropylcellulose) (HPC) 90 % of control | dose: 200.0 mg/kg/injection, schedule: Q01DX005 (ip), vehicle: Klucel (hydroxypropylcellulose) (HPC) 103 % of control | [2] 96 % of control | dose: 200.0 mg/kg/injection, schedule: Q04DX002 (ip), vehicle: Klucel (hydroxypropylcellulose) (HPC) 96 % of control

CCC(C)OC(=O)Nc1cccc(OC(=O)NC)c1 (stereo unspecified)
inactive: [3] 104 % of control | [4] 94 % of control | [5] 97 % of control

Cc1c(NC(=O)OCc2ccccc2)no[n+]1[O-]
inactive: dose: 100.0 mg/kg/injection, schedule: Q04DX002 (ip), vehicle: saline 102 % of control | dose: 200.0 mg/kg/injection, schedule: Q04DX002 (ip), vehicle: saline 98 % of control | dose: 400.0 mg/kg/injection, schedule: Q04DX002 (ip), vehicle: saline 98 % of control

COc1ccc(NC(=O)OC/C=C/c2ccccc2)c(OC)c1
inactive: [1] 90 % of control | [2] 87 % of control

O=C1CCC(=O)N1Nc1ccccc1
inactive: dose: 50.0 mg/kg/injection, schedule: Q01DX001 (ip), vehicle: carboxymethylcellulose (CMC) 104 % of control | dose: 100.0 mg/kg/injection, schedule: Q01DX001 (ip), vehicle: carboxymethylcellulose (CMC) 96 % of control | dose: 200.0 mg/kg/injection, schedule: Q01DX001 (ip), vehicle: carboxymethylcellulose (CMC) 102 % of control | dose: 400.0 mg/kg/injection, schedule: Q01DX001 (ip), vehicle: carboxymethylcellulose (CMC) 98 % of control

Oc1ccccc1N=Cc1c(O)ccc2ccccc12
inactive: dose: 100.0 mg/kg/injection, schedule: Q01DX001 (ip), vehicle: other 96 % of control | dose: 200.0 mg/kg/injection, schedule: Q01DX001 (ip), vehicle: other 98 % of control | dose: 400.0 mg/kg/injection, schedule: Q01DX001 (ip), vehicle: other 101 % of control

NC(=O)NC1CCCCCCC1
inactive: [3] 98 % of control | [4] 89 % of control | [5] 95 % of control

N#C/C([S-])=C(/[S-])C#N.N#C/C([S-])=C(/[S-])C#N.[Co].c1ccc([P+](c2ccccc2)(c2ccccc2)c2ccccc2)cc1
inactive: dose: 75.0 mg/kg/injection, schedule: Q01DX009 (ip), vehicle: Klucel (hydroxypropylcellulose) (HPC) 121 % of control | dose: 75.0 mg/kg/injection, schedule: Q04DX003 (ip), vehicle: saline 100 % of control | dose: 150.0 mg/kg/injection, schedule: Q01DX009 (ip), vehicle: Klucel (hydroxypropylcellulose) (HPC) 110 % of control | dose: 150.0 mg/kg/injection, schedule: Q04DX003 (ip), vehicle: saline 110 % of control | dose: 300.0 mg/kg/injection, schedule: Q01DX009 (ip), vehicle: Klucel (hydroxypropylcellulose) (HPC) 103 % of control | dose: 300.0 mg/kg/injection, schedule: Q04DX003 (ip), vehicle: saline 98 % of control

CCC[CH2][Sn]([CH2]CCC)([O][Sn]([CH2]CCC)([CH2]CCC)[S]C#N)[S]C#N
inactive: dose: 6.25 mg/kg/injection, schedule: Q01DX009 (ip), vehicle: Klucel (hydroxypropylcellulose) (HPC) 95 % of control | dose: 12.5 mg/kg/injection, schedule: Q01DX009 (ip), vehicle: Klucel (hydroxypropylcellulose) (HPC) 97 % of control | dose: 25.0 mg/kg/injection, schedule: Q01DX009 (ip), vehicle: Klucel (hydroxypropylcellulose) (HPC) 89 % of control

CC1OC(=O)C(=O)C1(C)C (stereo unspecified)
inactive: dose: 32.0 mg/kg/injection, schedule: Q01DX001 (ip), vehicle: carboxymethylcellulose (CMC) 100 % of control | dose: 62.5 mg/kg/injection, schedule: Q01DX001 (ip), vehicle: carboxymethylcellulose (CMC) 102 % of control | dose: 125.0 mg/kg/injection, schedule: Q01DX001 (ip), vehicle: carboxymethylcellulose (CMC) 93 % of control | dose: 250.0 mg/kg/injection, schedule: Q01DX001 (ip), vehicle: carboxymethylcellulose (CMC) 100 % of control | dose: 500.0 mg/kg/injection, schedule: Q01DX001 (ip), vehicle: carboxymethylcellulose (CMC) 107 % of control

Cc1nc(N)nc(N)c1CCCc1ccccc1
inactive: dose: 1.56 mg/kg/injection, schedule: Q01DX001 (ip), vehicle: saline with Tween-80 93 % of control | dose: 3.13 mg/kg/injection, schedule: Q01DX001 (ip), vehicle: saline with Tween-80 93 % of control | dose: 6.25 mg/kg/injection, schedule: Q01DX001 (ip), vehicle: saline with Tween-80 95 % of control and 97 % of control

O=C(/C=C/c1cccc([N+](=O)[O-])c1)CCl
inactive: dose: 25.0 mg/kg/injection, schedule: Q04DX003 (ip), vehicle: saline with Tween-80 110 % of control | dose: 50.0 mg/kg/injection, schedule: Q04DX003 (ip), vehicle: saline with Tween-80 105 % of control | [3] 103 % of control and 104 % of control

NC(=O)NNC1OCC(O)C(O)C1O (stereo unspecified)
inactive: dose: 100.0 mg/kg/injection, schedule: Q01DX009 (ip), vehicle: saline 90 % of control | dose: 100.0 mg/kg/injection, schedule: Q04DX003 (ip), vehicle: water 96 % of control | dose: 200.0 mg/kg/injection, schedule: Q01DX009 (ip), vehicle: saline 95 % of control | dose: 200.0 mg/kg/injection, schedule: Q04DX003 (ip), vehicle: water 96 % of control | dose: 400.0 mg/kg/injection, schedule: Q01DX009 (ip), vehicle: saline 97 % of control | dose: 400.0 mg/kg/injection, schedule: Q04DX003 (ip), vehicle: water 97 % of control

O=C(NNC1CCN(Cc2ccccc2)CC1)c1ccccc1
inactive: dose: 10.0 mg/kg/injection, schedule: Q01DX009 (ip), vehicle: saline with Tween-80 95 % of control | dose: 10.0 mg/kg/injection, schedule: Q04DX003 (ip), vehicle: saline with Tween-80 100 % of control | dose: 20.0 mg/kg/injection, schedule: Q01DX009 (ip), vehicle: saline with Tween-80 103 % of control | dose: 20.0 mg/kg/injection, schedule: Q04DX003 (ip), vehicle: saline with Tween-80 102 % of control | dose: 40.0 mg/kg/injection, schedule: Q01DX009 (ip), vehicle: saline with Tween-80 93 % of control | dose: 40.0 mg/kg/injection, schedule: Q04DX003 (ip), vehicle: saline with Tween-80 106 % of control

Cc1ccc(B(O)O)cc1
inactive: dose: 50.0 mg/kg/injection, schedule: Q04DX002 (ip), vehicle: alcohol 107 % of control | dose: 100.0 mg/kg/injection, schedule: Q04DX002 (ip), vehicle: alcohol 101 % of control | dose: 200.0 mg/kg/injection, schedule: Q04DX002 (ip), vehicle: alcohol 101 % of control

O=C(Nc1cnccn1)C(F)(F)F
inactive: dose: 100.0 mg/kg/injection, schedule: Q01DX001 (ip), vehicle: saline 105 % of control | dose: 200.0 mg/kg/injection, schedule: Q01DX001 (ip), vehicle: saline 97 % of control | dose: 400.0 mg/kg/injection, schedule: Q01DX001 (ip), vehicle: saline 105 % of control

CC1(C)CNC2OC1NCC2(C)C
inactive: dose: 100.0 mg/kg/injection, schedule: Q01DX001 (ip), vehicle: saline sonified 112 % of control | dose: 200.0 mg/kg/injection, schedule: Q01DX001 (ip), vehicle: saline sonified 89 % of control | dose: 400.0 mg/kg/injection, schedule: Q01DX001 (ip), vehicle: saline sonified 95 % of control

CCSCC(O)CCl (stereo unspecified)
inactive: dose: 37.5 mg/kg/injection, schedule: Q04DX002 (ip), vehicle: saline 103 % of control | dose: 37.5 mg/kg/injection, schedule: Q04DX003 (ip), vehicle: Klucel (hydroxypropylcellulose) (HPC) 115 % of control | dose: 75.0 mg/kg/injection, schedule: Q04DX002 (ip), vehicle: saline 107 % of control | dose: 75.0 mg/kg/injection, schedule: Q04DX003 (ip), vehicle: Klucel (hydroxypropylcellulose) (HPC) 105 % of control | dose: 150.0 mg/kg/injection, schedule: Q04DX002 (ip), vehicle: saline 100 % of control | dose: 150.0 mg/kg/injection, schedule: Q04DX003 (ip), vehicle: Klucel (hydroxypropylcellulose) (HPC) 98 % of control

COc1cc(C(=O)N(C)C)nc(OC)n1
inactive: dose: 100.0 mg/kg/injection, schedule: Q04DX003 (ip), vehicle: saline 106 % of control | dose: 200.0 mg/kg/injection, schedule: Q04DX003 (ip), vehicle: saline 108 % of control | dose: 400.0 mg/kg/injection, schedule: Q04DX003 (ip), vehicle: saline 106 % of control
